According to US11975073B2 (priority 2020, dated 2024):
Like-named read-outs stand apart in the source and are kept apart here.

Legend:
[1] = male, Sprague-Dawley, rat, in vivo, po
[2] = cynomolgus monkey, in vivo, po; for AUCinf, free allopregnanolone / AUCinf, total allopregnanolone / Cmax, free allopregnanolone / Cmax, total allopregnanolone: male, 8.8 umol/kg
[3] = Sprague-Dawley, rat, in vivo, 8.8 umol/kg

## CCCCCCCC/C=C\CCCCCCCC(=O)OCC(COC(=O)CCCCCCC/C=C\CCCCCCCC)OC(=O)CC(C)CC(=O)OCO[C@@H]1CC[C@@]2(C)[C@@H](CC[C@@H]3[C@@H]2CC[C@]2(C)[C@@H](C(C)=O)CC[C@@H]32)C1 (stereo partly drawn) [I-9]
[1]; 2 mg/kg
  Cmax: 126 nM
  Mean Plasma AUC, 0-24 h: 192.1 nM·h
  Tmax: 1.3 h

## CCCCCCCC(=O)OCC(COC(=O)CCCCCCC)OC(=O)CC(C)CC(=O)OC(C)OC(=O)O[C@@H]1CC[C@@]2(C)[C@@H](CC[C@@H]3[C@@H]2CC[C@]2(C)[C@@H](C(C)=O)CC[C@@H]32)C1 (stereo partly drawn) [I-36, ALL-CMSI-C5bMe-2-TG-octanoate]
[1]
  Cmax: 242 nM
  Tmax: 1.2 h
[2]
  Prodrug detectability in plasma samples after dose administration: detectable in plasma samples after dose administration at all time-points
  AUCinf, free allopregnanolone: 0.62 nM·h
  AUCinf, total allopregnanolone: 16.2 nM·h
  Cmax, free allopregnanolone: 100 nM
  Cmax, total allopregnanolone: 2720 nM
[3]
  AUCinf, free allopregnanolone: 1.12 nM·h
  AUCinf, total allopregnanolone: 3.86 nM·h
  Cmax, free allopregnanolone: 540 nM
  Cmax, total allopregnanolone: 800 nM

## CCCC(=O)OCC(COC(=O)CCC)OC(=O)CC(C)CC(=O)OC(C)OC(=O)O[C@@H]1CC[C@@]2(C)[C@@H](CC[C@@H]3[C@@H]2CC[C@]2(C)[C@@H](C(C)=O)CC[C@@H]32)C1 (stereo partly drawn) [I-37]
[1]
  Tmax: 0.8 h

## CC(=O)OCC(COC(C)=O)OC(=O)CC(C)CC(=O)OC(C)OC(=O)O[C@@H]1CC[C@@]2(C)[C@@H](CC[C@@H]3[C@@H]2CC[C@]2(C)[C@@H](C(C)=O)CC[C@@H]32)C1 (stereo partly drawn) [I-38]
[1]
  Mean Plasma AUC, 0-24 h: 450 nM·h
  Tmax: 1 h

## CCCCCCCC/C=C\CCCCCCCC(=O)OCC(COC(=O)CCCCCCC/C=C\CCCCCCCC)OC(=O)CCCCC(=O)OCO[C@@H]1CC[C@@]2(C)[C@@H](CC[C@@H]3[C@@H]2CC[C@]2(C)[C@@H](C(C)=O)CC[C@@H]32)C1 [I-40]
[1]; 2 mg/kg
  Tmax: 1.7 h

## CCCCCCCC/C=C\CCCCCCCC(=O)OCC(COC(=O)CCCCCCC/C=C\CCCCCCCC)OC(=O)CCCCCCC(=O)OCO[C@@H]1CC[C@@]2(C)[C@@H](CC[C@@H]3[C@@H]2CC[C@]2(C)[C@@H](C(C)=O)CC[C@@H]32)C1 [I-41]
[1]; 2 mg/kg
  Tmax: 1.7 h

## CCCCCCCC/C=C\CCCCCCCC(=O)OCC(COC(=O)CCCCCCC/C=C\CCCCCCCC)OC(=O)CC(C)CCCCC(=O)OCO[C@@H]1CC[C@@]2(C)[C@@H](CC[C@@H]3[C@@H]2CC[C@]2(C)[C@@H](C(C)=O)CC[C@@H]32)C1 (stereo partly drawn) [I-42]
[1]; 2 mg/kg
  Tmax: 1.5 h

## CCCCCCCC(=O)OCC(COC(=O)CCCCCCC)OC(=O)CC(C)CC(=O)OCOC(=O)O[C@@H]1CC[C@@]2(C)[C@@H](CC[C@@H]3[C@@H]2CC[C@]2(C)[C@@H](C(C)=O)CC[C@@H]32)C1 (stereo partly drawn) [I-47, ALL-CASI-C5bMe-2-TG-octanoate]
[2]
  Prodrug detectability in plasma samples after dose administration: detectable in plasma samples after dose administration at all time-points
  AUCinf, free allopregnanolone: 0.78 nM·h
  AUCinf, total allopregnanolone: 7.4 nM·h
  Cmax, free allopregnanolone: 120 nM
  Cmax, total allopregnanolone: 1170 nM
[3]
  AUCinf, free allopregnanolone: 1.15 nM·h
  AUCinf, total allopregnanolone: 3.03 nM·h
  Cmax, free allopregnanolone: 520 nM
  Cmax, total allopregnanolone: 900 nM

## CCCCCCCC/C=C\CCCCCCCC(=O)OCC(COC(=O)CCCCCCC/C=C\CCCCCCCC)OC(=O)CCCCC(C)CC(=O)OCOC(=O)O[C@@H]1CC[C@@]2(C)[C@@H](CC[C@@H]3[C@@H]2CC[C@]2(C)[C@@H](C(C)=O)CC[C@@H]32)C1 (stereo partly drawn) [I-49, ALL-CASI-C8b′Me-2-TG-oleate]
[1]; 2 mg/kg
  Tmax: 1.7 h
